Laboratory results as given in ChEMBL document CHEMBL5154936, “Scaffold Hopping Strategy to Identify Prostanoid EP4 Receptor Antagonists for Cancer Immunotherapy” (J Med Chem, 2022).

Experiments:
[1] = molecular target: Prostaglandin E2 receptor EP4 subtype (Homo sapiens, UniProt P35408); experiment: Antagonist activity at human EP4 receptor transfected in CHO/Galpha16 cells preincubated for 15 mins followed by PGE2 addition by calcium flux assay; format: functional, cell-based
[2] = molecular target: Prostaglandin E2 receptor EP4 subtype (Mus musculus, UniProt P32240); experiment: Antagonist activity at mouse EP4 receptor transfected in CHO/Galpha16 cells preincubated for 15 mins followed by PGE2 addition by calcium flux assay; format: functional, cell-based
[3] = Metabolic stability in human liver microsomes assessed as half life; format: ADME, Microsome
[4] = Metabolic stability in human liver microsomes assessed as intrinsic clearance; format: ADME, Microsome; conditions: read-out: CLH
[5] = Metabolic stability in human liver microsomes assessed as parent compound remaining at 10 uM measured after 60 mins; format: ADME, Microsome; conditions: read-out: Stability
[6] = molecular target: T1, Prostaglandin E2 receptor EP1 subtype (Homo sapiens, UniProt P34995); experiment: Antagonist activity at human EP1 receptor transfected in CHO/Galpha16 cells preincubated for 15 mins followed by PGE2 addition by calcium flux assay; format: functional, cell-based
T1 sequence (P34995 whole entry): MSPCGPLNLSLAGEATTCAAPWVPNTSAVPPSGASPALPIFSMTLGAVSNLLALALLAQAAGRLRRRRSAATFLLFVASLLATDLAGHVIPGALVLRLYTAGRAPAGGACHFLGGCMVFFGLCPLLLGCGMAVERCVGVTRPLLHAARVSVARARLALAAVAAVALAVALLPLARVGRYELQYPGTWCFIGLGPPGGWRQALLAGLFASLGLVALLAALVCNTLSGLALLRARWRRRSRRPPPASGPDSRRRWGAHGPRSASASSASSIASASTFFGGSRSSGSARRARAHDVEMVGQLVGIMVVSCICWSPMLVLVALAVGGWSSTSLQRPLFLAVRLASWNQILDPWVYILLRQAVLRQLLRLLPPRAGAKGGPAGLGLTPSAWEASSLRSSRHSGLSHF

[7] = molecular target: Prostaglandin E2 receptor EP2 subtype (Homo sapiens, UniProt P43116); experiment: Antagonist activity at human EP2 receptor transfected in CHO/Galpha16 cells preincubated for 15 mins followed by PGE2 addition by calcium flux assay; format: functional, cell-based
[8] = molecular target: T2, Prostaglandin E2 receptor EP3 subtype (Homo sapiens, UniProt P43115); experiment: Antagonist activity at human EP3 receptor transfected in CHO/Galpha16 cells preincubated for 15 mins followed by PGE2 addition by calcium flux assay; format: functional, cell-based
T2 sequence (P43115 whole entry): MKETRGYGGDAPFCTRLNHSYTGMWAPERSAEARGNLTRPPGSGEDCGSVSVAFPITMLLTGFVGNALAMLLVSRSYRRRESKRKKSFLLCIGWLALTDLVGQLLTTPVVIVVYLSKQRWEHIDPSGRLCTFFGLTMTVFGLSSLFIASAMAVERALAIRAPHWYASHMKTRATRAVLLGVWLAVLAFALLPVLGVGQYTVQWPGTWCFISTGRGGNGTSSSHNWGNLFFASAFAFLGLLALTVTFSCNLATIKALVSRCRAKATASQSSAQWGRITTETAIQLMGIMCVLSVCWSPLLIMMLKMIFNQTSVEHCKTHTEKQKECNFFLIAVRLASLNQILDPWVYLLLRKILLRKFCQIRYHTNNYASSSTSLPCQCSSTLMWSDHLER

[9] = Metabolic stability in mouse liver microsomes assessed as half life; format: ADME, Microsome
[10] = Metabolic stability in mouse liver microsomes assessed as intrinsic clearance; format: ADME, Microsome; conditions: read-out: CLH
[11] = Metabolic stability in mouse liver microsomes assessed as parent compound remaining at 10 uM measured after 60 mins; format: ADME, Microsome; conditions: read-out: Stability

Prostaglandin E2 receptor EP2 subtype, sequence (P43116 whole entry): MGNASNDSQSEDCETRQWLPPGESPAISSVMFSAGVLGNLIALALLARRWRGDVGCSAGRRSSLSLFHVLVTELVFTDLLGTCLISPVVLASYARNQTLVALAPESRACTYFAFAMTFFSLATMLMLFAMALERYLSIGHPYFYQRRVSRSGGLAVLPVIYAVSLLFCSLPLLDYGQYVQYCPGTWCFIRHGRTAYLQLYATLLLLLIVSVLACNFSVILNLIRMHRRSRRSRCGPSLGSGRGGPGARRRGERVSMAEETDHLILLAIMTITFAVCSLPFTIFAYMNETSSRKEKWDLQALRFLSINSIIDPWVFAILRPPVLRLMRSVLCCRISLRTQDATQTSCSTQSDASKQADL
Prostaglandin E2 receptor EP4 subtype (Mus musculus, UniProt P32240), sequence (P32240 whole entry): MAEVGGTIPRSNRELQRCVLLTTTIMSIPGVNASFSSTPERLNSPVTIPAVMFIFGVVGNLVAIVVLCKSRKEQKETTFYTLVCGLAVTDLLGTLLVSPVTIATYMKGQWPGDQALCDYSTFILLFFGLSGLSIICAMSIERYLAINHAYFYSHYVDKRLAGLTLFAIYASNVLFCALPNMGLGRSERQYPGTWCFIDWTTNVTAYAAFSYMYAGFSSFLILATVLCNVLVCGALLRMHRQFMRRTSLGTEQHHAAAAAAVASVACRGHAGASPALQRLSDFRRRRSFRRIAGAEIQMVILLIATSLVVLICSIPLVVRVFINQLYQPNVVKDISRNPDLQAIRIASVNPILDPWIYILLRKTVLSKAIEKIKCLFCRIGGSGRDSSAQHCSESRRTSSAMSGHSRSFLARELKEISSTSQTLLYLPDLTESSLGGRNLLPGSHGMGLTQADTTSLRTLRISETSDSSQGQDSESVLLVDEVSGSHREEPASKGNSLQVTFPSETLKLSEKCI
Prostaglandin E2 receptor EP4 subtype (Homo sapiens, UniProt P35408), sequence (P35408 whole entry): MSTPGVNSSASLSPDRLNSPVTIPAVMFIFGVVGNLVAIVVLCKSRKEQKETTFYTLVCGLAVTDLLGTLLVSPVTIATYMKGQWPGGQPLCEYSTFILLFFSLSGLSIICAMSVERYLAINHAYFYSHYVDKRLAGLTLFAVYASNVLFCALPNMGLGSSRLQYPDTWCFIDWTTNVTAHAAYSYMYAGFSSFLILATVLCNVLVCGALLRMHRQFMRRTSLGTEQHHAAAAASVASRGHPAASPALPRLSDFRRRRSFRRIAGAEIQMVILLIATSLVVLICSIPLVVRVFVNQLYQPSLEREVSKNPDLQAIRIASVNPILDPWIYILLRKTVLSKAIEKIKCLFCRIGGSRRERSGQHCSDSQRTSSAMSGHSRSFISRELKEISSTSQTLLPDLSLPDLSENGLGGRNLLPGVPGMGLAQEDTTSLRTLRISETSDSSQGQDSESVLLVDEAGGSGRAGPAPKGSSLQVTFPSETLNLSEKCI

Question: For `CCC1CCc2c(sc(CCc3ccc(F)cc3)c2C(=O)N[C@@H](C)c2ccc(C(=O)O)cc2)C1` (stereo partly drawn), which IC50 [1] is on record?
Answer: 648 nM

Question: For `C[C@H](NC(=O)c1c(/N=C/c2cccc(C(F)(F)F)c2)sc2c1CCOC2)c1ccc(C(=O)O)cc1`, which IC50 [1] is on record?
Answer: > 1000 nM

Question: Which results are given for `C[C@H](NC(=O)c1c(CCc2ccc(F)cc2)sc2c1CCCC2)c1ccc(C(=O)O)cc1`?
Answer: IC50 [1]: 27.8 nM; IC50 [2]: 29 nM; half-life [3]: 14 min; microsomal CLint [4]: 97.6 µL/min/mg; remaining at 1 h, 10 µM [5]: 5%

Question: What does the source list for `COc1ccc(Cc2sc3c(c2C(=O)N[C@@H](C)c2ccc(C(=O)O)cc2)CCOC3)cc1F`?
Answer: IC50 [6]: > 10 µM; IC50 [7]: > 10 µM; IC50 [8]: > 10 µM

Question: For `C[C@H](NC(=O)c1c(Cc2ccc(OC(F)(F)F)c(Cl)c2)sc2c1CCOC2)c1ccc(C(=O)O)cc1`, which IC50 [1] is on record?
Answer: 6.6 nM

Question: For `C[C@H](NC(=O)c1c(CCc2ccc(F)cc2)sc2c1CCC2)c1ccc(C(=O)O)cc1`, which IC50 [2] is on record?
Answer: 19.8 nM

Question: What about the IC50 [6] of the same compound?
Answer: > 10 µM

Question: And the IC50 [7]?
Answer: > 10 µM

Question: What about the IC50 [8] of the same compound?
Answer: > 10 µM

Question: What about the half-life [3] of the same compound?
Answer: 6.3 min

Question: What about the microsomal CLint [4] of the same compound?
Answer: 221 µL/min/mg

Question: What about the remaining at 1 h, 10 µM [5] of the same compound?
Answer: 12.2%

Question: And the half-life [9]?
Answer: 16.1 min

Question: What about the microsomal CLint [10] of the same compound?
Answer: 86.1 µL/min/mg

Question: And the remaining at 1 h, 10 µM [11]?
Answer: 6.8%

Question: Which IC50 [1] does the source give for `O=C(O)c1cccc(CNC(=O)c2c(Cc3cccc(C(F)(F)F)c3)sc3c2CCOC3)c1` here?
Answer: > 1000 nM

Question: With `C[C@H](NC(=O)c1c(NC(=O)c2ccc(F)cc2)sc2c1CCOC2)c1ccc(C(=O)O)cc1` as the compound, how does the IC50 [1] read?
Answer: > 1000 nM

Question: With `C[C@H](NC(=O)c1c(NCc2ccc(C(F)(F)F)cc2)sc2c1CCOC2)c1ccc(C(=O)O)cc1` as the compound, how does the IC50 [1] read?
Answer: 32.9 nM

Question: And the IC50 [2]?
Answer: 66.7 nM

Question: And the IC50 [6]?
Answer: > 10 µM

Question: And the IC50 [7]?
Answer: > 10 µM

Question: What about the IC50 [8] of the same compound?
Answer: > 10 µM

Question: With `C[C@H](NC(=O)c1c(Cc2ccc(F)cc2)sc2c1CCOC2)c1ccc(C(=O)NN)cc1` as the compound, how does the IC50 [1] read?
Answer: 74.9 nM

Question: Which IC50 [1] does the source give for `COc1ccc2cc(C#Cc3sc4c(c3C(=O)N[C@@H](C)c3ccc(C(=O)O)cc3)CCOC4)ccc2c1` here?
Answer: 27.2 nM

Question: For `COc1cccc(Cc2sc3c(c2C(=O)N[C@@H](C)c2ccc(C(=O)O)cc2)CCOC3)c1`, which IC50 [1] is on record?
Answer: 1.9 nM

Question: With `O=C(NCC1CCC(C(=O)O)CC1)c1c(Cc2ccc(F)cc2)sc2c1CCOC2` (stereo not drawn) as the compound, how does the IC50 [1] read?
Answer: 30.3 nM

Question: Which IC50 [1] does the source give for `C[C@H](NC(=O)c1c(CCc2ccc(F)cc2)sc2c1CCN(C(=O)OC(C)(C)C)C2)c1ccc(C(=O)O)cc1` here?
Answer: 315 nM
